Measurements reported in US7498343B2, “Mycobacterial inhibitors” (priority 2002, dated 2009).
≈ marks a conversion by molar mass, not a printed value. Like-named read-outs stand apart in the source and are kept apart here.

Key:
M. Smegmatis ATCC607 = assay: In-vitro method for testing compounds for anti-bacterial activity against strain M. smegmatis ATCC607 (Alamar Blue growth inhibition); type: cell-based; details: M. smegmatis ATCC607; pIC50 = -logIC50, IC50 in M, 50% inhibitory concentration for bacterial growth; 48 hours incubation
Procedure, shortened: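 About 250 CFU/well M. smegmatis ATCC607 in Mueller-Hinton broth exposed to five-fold serial compound dilutions, 48 h at 37 °C, humidified 5% CO2. Growth read by Alamar Blue fluorescence (ex 530/em 590 nm) after 2 h further incubation; % growth inhibition calculated.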

[1] = system: Mycobacterium tuberculosis (strain H37RV); assay: In-vitro method for testing compounds against M. tuberculosis (resazurin growth inhibition, MIC); type: cell-based; details: MIC data representing IC90's, 7 days incubation, resazurin fluorescence

Compound | pIC50 (M. Smegmatis ATCC607) | MIC [1] [microgram/ml] | MIC ([1]; Mycobacterium tuberculosis, H37RV, 168 h, read-out: MIC) [µg/mL]
COc1nc2ccccc2cc1C(c1ccccc1)C(O)(CCN(C)C)c1cccc2ccccc12 (racemic) [Compound 92] | 6.5 | 7.55 | 
COc1nc2ccc(Cl)cc2cc1C(c1ccccc1)C(O)(CCN(C)C)c1cccc2ccccc12 (single isomer, unassigned) [Compound 120] | 5.9 | 40.60 | 
COc1nc2ccc(Br)cc2cc1C(c1ccccc1)C(O)(CCN(C)C)c1ccc2ccccc2c1 (racemic) [Compound 45] | 8.0 | 1.76 | 
COc1nc2ccc(Br)cc2cc1C(c1ccccc1)C(O)(CCN(C)C)c1ccc2c(c1)OCO2 (racemic) [Compound 75] | 7.9 | 1.74 | 
COc1ccc2nc(OC)c(C(c3ccccc3)C(O)(CCN(C)C)c3cccc(F)c3)cc2c1 (single isomer, unassigned) [Compound 134] | 6.5 | 7.52 | 
COc1nc2ccc(Br)cc2cc1C(c1ccccc1)C(O)(CCN(C)C)c1cc(F)ccc1F (stereo not drawn) [Compound 111] | 6.4 | 1.71 | 
COc1nc2ccc(Br)cc2cc1C(c1ccccc1)C(O)(CCN1CCN(C)CC1)c1ccc2ccccc2c1 (racemic) [Compound 137] | 4.6 | 42.23 | 
COc1nc2ccc(-c3ccccc3)cc2cc1C(c1ccccc1)C(O)(CCN(C)C)c1ccccc1 (single isomer, unassigned) [Compound 27] | 5.9 | 7.97 | 
COc1ccc2nc(OC)c(C(c3ccccc3)C(O)(CCN(C)C)c3cccc4ccccc34)cc2c1 (single isomer, unassigned) [Compound 97] | 5.9 | 20.17 | 
COc1nc2ccc(Br)cc2cc1C(c1ccccc1)C(O)(CCN(C)C)c1cc(F)cc(F)c1 (stereo not drawn) [Compound 117] | 6.7 | 1.71 | 
COc1nc2ccc(C#N)cc2cc1C(c1ccccc1)C(O)(CCN(C)C)c1cccc(F)c1 (single isomer, unassigned) [Compound 179] | 7.0 | 1.48 | 
COc1nc2ccc(Br)cc2cc1C(c1ccccc1)C(O)(CCN1CCCC1)c1ccc2cc(Br)ccc2c1 (single isomer, unassigned) [Compound 157] | 5.6 | 52.46 | 
COc1nc2ccc(Br)cc2cc1C(c1ccc(F)cc1)C(O)(CCN(C)C)c1cccc2ccccc12 (racemic) [Compound 206] | 6.5 | 9.09 | 
COc1nc2ccc(Br)cc2cc1C(c1ccccc1)C(O)(CCCN(C)C)c1ccc2ccccc2c1 (single isomer, unassigned) [Compound 125] | 4.4 | 18.01 | 
COc1nc2ccc(Br)cc2cc1C(c1ccccc1)C(O)(CCc1ccccc1)CCN(C)C (racemic) [Compound 95] | 6.9 | 16.87 | 
COc1nc2ccc(Br)cc2cc1C(c1ccccc1)C(O)(CCN(C)C)c1ccc(Cl)cc1 (single isomer, unassigned) [Compound 17] | 6.5 | 1.71 | 
COc1nc2ccc(Br)cc2cc1C(c1ccccc1)C(O)(CCN1CCCC1)c1ccc2ccccc2c1 (stereo not drawn) [Compound 170] | 5.6 |  | 46.2 (≈ 79.4 µM)
COc1nc2c(C)cc(Br)cc2cc1C(c1ccccc1)C(O)(CCN(C)C)c1cccc(F)c1 (single isomer, unassigned) [Compound 219] | 5.8 | 42.69 | 
COc1nc2ccc(Br)cc2cc1C(c1ccccc1)C(O)(CCCCN(C)C)c1ccccc1 (single isomer, unassigned) [Compound 65] | 5.7 | 1.69 | 
COc1nc2ccc(Br)cc2cc1C(c1ccccc1)C(O)(CCN(C)C)c1cccc(F)c1 (stereo not drawn) [Compound 109] | 8.2 | 0.33 | 
COc1nc2cccc(Br)c2cc1C(c1ccccc1)C(O)(CCN(C)C)c1cccc2ccccc12 (single isomer, unassigned) [Compound 221] | 6.5 | 44.13 | 
COc1nc2ccc(-c3ccco3)cc2cc1C(c1ccccc1)C(O)(CCN(C)C)c1cccc(F)c1 (single isomer, unassigned) [Compound 175] | 6.5 | 10.19 | 
COc1nc2ccc(Br)cc2cc1C(c1ccccc1)C(O)(CCCN(C)C)c1cccc2ccccc12 (single isomer, unassigned) [Compound 186] | 4.5 | 56.96 | 
COc1nc2cc(C)c(Br)cc2cc1C(c1ccccc1)C(O)(CCN(C)C)c1cc(F)cc(F)c1 (single isomer, unassigned) [Compound 228] | 5.1 | 8.80 | 

Compound | pIC50 (M. Smegmatis ATCC607) | MIC [1] [microgram/ml] | MIC ([1]; Mycobacterium tuberculosis, H37RV, 168 h, read-out: MIC) [µg/mL]
COc1nc2ccc(Br)cc2cc1C(c1ccccc1)C(O)(CCCN(C)C)c1ccccc1 (single isomer, unassigned) [Compound 64] | 5.8 | 6.54 | 
COc1nc2ccc(Br)cc2cc1C(c1ccccc1)C(O)(CCN1CCCCC1)c1cccc2ccccc12 (stereo not drawn) [Compound 146] | 4.8 | 59.56 | 
COc1nc2ccc(Br)cc2cc1C(c1ccc(Cl)cc1)C(O)(CCN(C)C)c1ccccc1 (single isomer, unassigned) [Compound 36] | 6.4 | 5.40 | 
COc1nc2ccc(Br)cc2cc1C(c1ccccc1)C(O)(CCCCN(C)C)c1ccccc1 (single isomer, unassigned) [Compound 66] | 4.7 | 1.69 | 
COc1nc2ccc(Br)cc2cc1C(c1ccccc1)C(O)(CCN(C)C)c1cccnc1 (racemic) [Compound 87] | 5.0 | 40.23 | 
CCN(C)CCC(O)(c1ccc2ccccc2c1)C(c1ccccc1)c1cc2cc(Br)ccc2nc1OC (stereo not drawn) [Compound 142] | 6.2 | 9.03 | 
COc1nc2ccc(Br)cc2cc1C(c1ccccc1)C(O)(CN(C)C)c1ccccc1 (single isomer, unassigned) [Compound 62] | 5.9 | 7.79 | 
COc1nc2ccc(C)cc2cc1C(c1ccccc1)C(O)(CCN(C)C)c1cccc2ccccc12 (racemic) [Compound 83] | 5.8 | 7.78 | 
COc1nc2ccc(Br)cc2cc1C(c1ccccc1)C(O)(CCN(C)C)c1ccc(C#N)cc1 (racemic) [Compound 80] | 7.1 | 2.11 | 
COc1nc2ccc(Br)cc2cc1C(c1ccccc1)C(O)(CCN1CCOCC1)c1ccc2ccccc2c1 (single isomer, unassigned) [Compound 139] | 4.1 | 59.76 | 
COc1nc2cc(C)c(Br)cc2cc1C(c1ccccc1)C(O)(CCN(C)C)c1cccc(F)c1 (single isomer, unassigned) [Compound 215] | 6.2 | 8.52 | 
COc1nc2ccc(C)cc2cc1C(c1ccccc1)C(O)(CCN(C)C)c1cccc2ccccc12 (racemic) [Compound 82] | 7.1 | 3.90 | 
COc1nc2ccc(-c3ccccc3)cc2cc1C(c1ccccc1)C(O)(CCN(C)C)c1ccccc1 (single isomer, unassigned) [Compound 26] | 7.2 | 1.00 | 
COc1nc2ccc(Br)cc2cc1C(c1ccccc1)C(O)(CCN(C)C)c1cc(F)cc(F)c1 (stereo not drawn) [Compound 116] | 6.6 | 8.58 | 
COc1nc2ccc(Br)cc2cc1C(c1ccccc1)C(O)(CCN(C)C)c1ccc(C#N)cc1 (racemic) [Compound 81] | 5.4 | 42.14 | 
CSc1nc2ccc(Br)cc2cc1C(c1ccccc1)C(O)(CCN(C)C)c1ccccc1 (single isomer, unassigned) [Compound 33] | 6.0 | 8.27 | 
COc1nc2ccc(Br)cc2cc1C(c1ccccc1)C(O)(CC[N+](C)(C)[O-])c1ccccc1 (racemic) [Compound 58] | 6.8 | 16.49 | 
COc1nc2ccc(Br)cc2cc1C(c1ccccc1)C(O)(CCCN(C)C)c1ccc2ccccc2c1 (single isomer, unassigned) [Compound 126] | 5.2 | 56.96 | 
COc1nc2ccc(Br)cc2cc1C(c1ccccc1)C(O)(CCN(C)C)c1cccc2ccccc12 (stereo not drawn) [Compound 14] | 6.8 | 8.80 | 
COc1nc2ccc(Br)cc2cc1C(c1ccccc1)C(O)(CCCN1CCCC1)c1cccc2ccccc12 (single isomer, unassigned) [Compound 194] | 4.9 | 47.31 | 
COc1nc2ccccc2cc1C(c1ccccc1)C(O)(CCN(C)C)c1cccc(F)c1 (racemic) [Compound 93] | 4.8 | 35.31 | 
COc1nc2ccc(Br)cc2cc1C(c1ccccc1)C(O)(CCN1CCN(c2ncccn2)CC1)c1ccc2ccccc2c1 (single isomer, unassigned) [Compound 200] | 4.9 | 67.47 | 
CCN(CC)CCCC(O)(c1ccc2ccccc2c1)C(c1ccccc1)c1cc2cc(Br)ccc2nc1OC (single isomer, unassigned) [Compound 192] | 6.5 | 5.98 | 
COc1nc2ccc(Br)cc2cc1C(c1ccccc1)C(O)(CCN(C)C)c1ccc2c(Br)cccc2c1 (single isomer, unassigned) [Compound 127] | 6.9 | 25.26 | 
